Results from patent US20240409935A1, “Atg8ylation coordinates stress granule formation and mTOR inactivation in response to lysosomal damage” (priority 2023, published 2024).
Residues, ends and D or L forms follow the SMILES beside them. *: point of attachment. βNA = c1ccc2cc(N*)ccc2c1

Assays:
[1] = tested on: eIF2α (S51) phosphorylation; assay: Immunoblot analysis of eIF2α (S51) phosphorylation in U2OS cells; assay type: cell-based, human
[2] = tested on: G3BP1 puncta (stress granules) in U2OS cells; assay: HCM quantification of G3BP1 puncta (stress granule formation) in U2OS cells; assay type: cell-based, human; conditions: for SG formation response (G3BP1 puncta): agent alone for 30 min (2 mM LLOMe, 200 μM GPN, 400 μg/mL silica, 4 mM LOMe)
TFEB = TFEB nuclear translocation (HCM) and TFEB (S142) phosphorylation in Huh7 cells; assay type: cell-based, human; conditions: 530 nM AZD6244 for 2 h, 1 mM LLOMe for 30 min
Protocol: FIGS. 2SA-2SG show the cellular transcriptional response during lysosomal damage. FIG. 2SA RNAseq analysis of the change on gene expression in HEK293T cells in response to 1 mM LLOMe treatment for 30 min. […] The dotted line indicates the significance cut-off (P<0.05). […] Ctrl, control (untreated cells). […] Blue: nuclei, Hoechst 33342. Red: anti-TFEB antibody, Alexa Fluor 568. White masks, computer-algorithm-defined cell boundaries. Pink masks, computer-identified nuclear TFEB based on the average intensity of Alexa Fluor 568 fluorescence. […] Red masks, computer-identified G3BP1 puncta. […] Red masks, computer-identified G3BP1 puncta. Ctrl, control (untreated cells). Data, means±SEM; HCM: n≥3 (each experiment: 500 valid primary objects/cells per Well, ≥5 Well s/sample). **p<0.01, ANOVA.

[3] = tested on: ALIX puncta in U2OS cells; assay: HCM quantification of ALIX puncta in U2OS cells; assay type: cell-based, human; conditions: 15 μM BAPTA-AM for 1 h, then 2 mM LLOMe for 30 min
Protocol: Cells Were treated with 2 mM LLOMe for 30 min. White masks, algorithm-defined cell boundaries; red masks, computer-identified G3BP1 puncta. […] Cells Were treated with 2 mM LLOMe for 30 min. White masks, algorithm-defined cell boundaries; green masks, computer-identified ALIX puncta. NT, untreated cells. Data, means±SEM (n=3); HCM: n≥3 (each experiment: 500 valid primary objects/cells per Well, ≥5 Well s/sample). †p≥0.05 (not significant), **p<0.01, ANOVA. See also FIG. 11.

[4] = tested on: human peripheral blood monocyte-derived macrophages (hMDM); assay: PI uptake cell death assay (HCM) in hMDM; assay type: cell-based
Protocol: Cells Were treated with 2 mM LLOMe for 30 min, and then stained with propidium iodide (PI) (dead cells) and Hoechst-33342 (total cells). White masks, algorithm-defined cell boundaries (primary objects); red masks, computer-identified PI^+ nuclei (target objects). […] Cells Were treated with 2 mM LLOMe for 30 min. […] Cells Were treated with 2 mM in the presence or absence of 10 μg/ml cycloheximide (CHX) for 30 min, and then stained with PI (dead cells) and Hoechst-33342 (total cells). […] Scale bar, 10 μm. […] Cells Were treated with 2 mM LLOMe with or without CHX for 30 min, and then stained using Live/Dead™ stain kit (ThermoFisher). […] Cells Were treated with 2 mM LLOMe for 30 min, and then stained with PI (dead cells), Hoechst-33342 (total cells) or eIF4G. (i) HCM images: white masks, algorithm-defined cell boundaries; green masks, computer-identified eIF4G puncta; red masks, computer-identified PI^+ nuclei (target objects); (ii and iii) corresponding HCM quantification. […] Cells Were treated with 2 mM LLOMe for 30 min. […] CTR, control; NT, untreated cells. Data, means±SEM (n=3); HCM: n≥3 (each experiment: 500 valid primary objects/cells per Well, ≥5 Well s/sample). †p≥0.05 (not significant), *p<0.05, **p<0.01, ANOVA. See also FIG. 7S.
(§1) FIGS. 12SA-12SF. Stress granules are important for cell survival in response to lysosomal damage in disease states. […] White masks, algorithm-defined cell boundaries; red masks, computer-identified LTR puncta. […] White masks, algorithm-defined cell boundaries; green masks, computer-identified ALIX puncta. […] White masks, algorithm-defined cell boundaries; red masks, computer-identified G3BP1 puncta. […] Cells Were treated with 200 μg/mL silica for 4 h in the presence or absence of 100 nM ISRIB, and then stained with propidium iodide PI (dead cells) and Hoechst-33342 (total cells). White masks, algorithm-defined cell boundaries; red masks, computer-identified PI^+ nuclei. […]

ATF4 = ATF4 expression in THP-1 cells; assay type: cell-based, human
[5] = tested on: G3BP1 puncta in THP-1 cells; assay: Stress granule formation in THP-1 cells; assay type: cell-based, human
Protocol: as §1
How does SG formation affect cell fate during lysosomal damage? […] The inventors quantified the number of SGs using the canonical SG marker polyA RNA (Ivanov et al., 2019) via high-content microscopy (HCM) (FIG. S1B) and verified the depletion of SG formation in ΔΔG3BP1/2 cells when exposed to the lysosome-specific damaging agent L-leucyl-L-leucine methyl ester (LLOMe) (Jia et al., 2022; Tan et al., 2022; Thiele et al., 1990) (FIG. 7SB). A propidium iodide (PI) uptake assay measuring plasma membrane integrity (Crowley et al., 2016; Liu et al., 2023) was adapted to quantify cell survival during lysosomal damage using HCM. […]

THP-1 cells = assay: Cell survival of THP-1 cells; assay type: cell-based
mTOR = assay: mTOR/mTORC1 activity by phosphorylation of its substrates (4EBP1 S65, ULK1 S757, S6K1 T389) in U2OS cells; assay type: cell-based, human
[6] = tested on: NUFIP2, G3BP1 and TIA1 on lysosomes; assay type: cell-based, human
[7] = tested on: Galectin-3 puncta in BMM cells; assay type: cell-based, murine
[8] = tested on: human peripheral blood monocyte-derived macrophages (hMDM); conditions: 1 μg/ml cycloheximide
[9] = tested on: human peripheral blood monocyte-derived macrophages (hMDM); conditions: hemozoin (10.0 mg/mL) 4 h, 1 μg/ml cycloheximide
U2OS cells = assay: LDH release assay in U2OS cells; assay type: cell-based, human; conditions: LLOMe plus cycloheximide
Excerpt: How does SG formation affect cell fate during lysosomal damage? The inventors utilized SG deficient U2OS cells (human osteosarcoma epithelial cell line) genetically lacking both G3BP1 and G3BP2 (ΔΔG3BP1/2) (Nancy Kedersha et al., 2016), which are essential factors for SG formation (Guillén-Boixet et al., 2020; Nancy Kedersha et al., 2016; P. Yang et al., 2020) (FIG. 7SA). The inventors quantified the number of SGs using the canonical SG marker polyA RNA (Ivanov et al., 2019) via high-content microscopy (HCM) (FIG. S1B) and verified the depletion of SG formation in ΔΔG3BP1/2 cells when exposed to the lysosome-specific damaging agent L-leucyl-L-leucine methyl ester (LLOMe) (Jia et al., 2022; Tan et al., 2022; Thiele et al., 1990) (FIG. 7SB). A propidium iodide (PI) uptake assay measuring plasma membrane integrity (Crowley et al., 2016; Liu et al., 2023) was adapted to quantify cell survival during lysosomal damage using HCM. […] This was additionally confirmed by using a lactate dehydrogenase (LDH) release assay measuring non-specific leak from cells (Chan et al., 2013; Kumar et al., 2018) (FIG. 1B). […] Elevated cell death, as quantified by PI uptake assay (FIG. 1F (i, iii)) and the LDH release assay (FIG. 1G), was detected in G3BP1/2^DKD in response to LLOMe treatment. […]

PKR = assay: LysoIP immunoblotting of PKR and eIF2α phosphorylation on damaged lysosomes from HEK293T cells; assay type: cell-based, human; conditions: 1 mM LLOMe with 210 nM imidazolo-oxindole C16 for 1 h

In the case of `Nc1ncc2[nH]cnc2n1` [2-AP, 2-aminopurine], the “eIF2α phosphorylation in cells treated with LLOMe, with PKR inhibitor” value ([1]; U2OS cells, 2-AP for 1 h followed by 2 mM LLOMe for 30 min) is reported as “inhibited eIF2α phosphorylation” and the “SG formation in response to LLOMe treatment, with 2-AP” value ([2]; 2-AP for 1 h followed by 2 mM LLOMe for 30 min) is reported as “inhibited, in a dose-response fashion, SG formation”.
With `Cn1cnc2c(F)c(Nc3ccc(Br)cc3Cl)c(C(=O)NOCCO)cc21` [AZD6244] the “nuclear translocation of TFEB and dephosphorylation at Ser142: lysosomal damage compared with AZD6244” value (TFEB) was “equal in magnitude”.
`CC(=O)OCOC(=O)CN(CC(=O)OCOC(C)=O)c1ccccc1OCCOc1ccccc1N(CC(=O)OCOC(C)=O)CC(=O)OCOC(C)=O` [BAPTA-AM] was tested, and the “ALIX puncta formation upon lysosomal damage, with BAPTA-AM” value [3] was “decrease in ALIX puncta formation”, the “eIF2α phosphorylation during lysosomal damage, with BAPTA-AM” value ([1]; U2OS cells, 15 μM BAPTA-AM for 1 h, then 2 mM LLOMe for 30 min) was “significant reduction” and the “SG formation during lysosomal damage, with BAPTA-AM” value ([2]; 15 μM BAPTA-AM for 1 h, then 2 mM LLOMe for 30 min) was “significant reduction in SG formation”.
In the case of `NCC(=O)N[C@@H](Cc1ccccc1)C(=O)Nc1ccc2ccccc2c1` [GPN, glycyl-L-phenylalanine-2-naphthyl amide] (H-Gly-Phe-βNA), the “SG formation response (G3BP1 puncta)” value [2] is reported as “strong SG formation response”.
With `O=C(COc1ccc(Cl)cc1)N[C@H]1CC[C@@H](NC(=O)COc2ccc(Cl)cc2)CC1` [ISRIB, N,N′-((1s,4s)-cyclohexane-1,4-diyl)bis(2-(4-chlorophenoxy)acetamide)] the “cell death by PI uptake assay during tau oligomer treatment, with ISRIB” value ([4]; 10 μg/mL tau oligomer for 4 h, 100 nM ISRIB) was “comparable effect on cell death”, the “cell death by PI uptake assay during silica treatment, with ISRIB” value ([4]; 200 μg/mL silica for 4 h, 100 nM ISRIB) was “comparable effect on cell death” and the “ATF4 expression levels upon lysosomal damage, with ISRIB” value (ATF4) was “reduction in ATF4 expression levels”. For the same compound, the “SG formation upon lysosomal damage, with ISRIB” value [5] was “prevented SG formation” and the “cell survival upon lysosomal damage, with ISRIB” value (THP-1 cells) was “decrease in cell survival”.
`COC(=O)[C@@H](N)CC(C)C` [LOMe] was tested, and the “SG formation response (G3BP1 puncta)” value [2] was “did not induce SG formation”.
For `O=[As][O-].[Na+]` [arsenite, NaAsO2], the “mTORC1 activity under arsenic stress” value (mTOR) was “activating mTORC1 activity”, the “enrichment of NUFIP2, G3BP1 and TIA1 on purified lysosomes” value [6] was “not on lysosomes purified from cells treated with arsenite” and the “lysosomal damage monitored by Galectin-3 response” value [7] was “did not induce lysosomal damage”. For the same compound, the “eIF2α phosphorylation under arsenic stress” value [1] was “led to eIF2α phosphorylation”.
In the case of `C[C@@H]1C[C@@H]([C@H](O)CC2CC(=O)NC(=O)C2)C(=O)[C@@H](C)C1` [cycloheximide], the “cell death by PI uptake assay during LLOMe treatment, with cycloheximide” value ([4]; 2 mM LLOMe with 10 μg/ml cycloheximide for 30 min) is reported as “significant increase in cell death”, the “cell death (AMNIS, Live/Dead) during tau oligomer treatment, with cycloheximide” value ([8]; 10 μg/mL tau oligomer for 4 h) is reported as “augmented cell death” and the “cell death (AMNIS, Live/Dead) during silica treatment, with cycloheximide” value ([8]; 200 μg/mL silica for 4 h) is reported as “augmented cell death”. For the same compound, the “cell death by LDH release assay in response to hemozoin, with cycloheximide” value [9] was “increased cell death”, the “cell survival by LDH release, with cycloheximide during lysosomal damage” value (U2OS cells) was “increased LDH release” and the “SG formation (G3BP1 puncta) following LLOMe treatment, with cycloheximide” value [2] was “inhibited SG formation”.
With `O=C1Nc2ccc3ncsc3c2/C1=C/c1cnc[nH]1` [imidazolo-oxindole C16] the “phosphorylation of both PKR and eIF2α on damaged lysosomes, with C16” value (PKR) was “effectively blocked” and the “SG formation during lysosomal damage, with C16” value ([2]; 210 nM imidazolo-oxindole C16 for 2 h followed by 2 mM LLOMe for 30 min) was “reduced SG formation”.
